Molecules are shown by their SMILES.

The values below come from patent US9462807B2, “Difenoconazole sterepospmeric composition with reduced phytotoxicity” (Syngenta Participations AG, priority 2013, dated 2016).

In the series the test system is Wheat (variety "Riband"). The series is described as follows: Phytotoxicity on pot-grown wheat after track-sprayer application. The class given is in vivo. Conditions: versus 2S,4R (Ia), 2R,4R (Ic) and 2S,4S (Id). How it is done:
Wheat seeds (variety “Riband”) were sown in 6.5 cm diameter pots with typically 6 seeds per pot. The growing media comprised 66.5% TKS1 peat soil, 30% sugar beet soil and 3.5% sand. The seeds were covered with a fine layer of soil and the pots were watered. Within a day of sowing the pots were treated with 5 mL of a solution of the growth regulator trinexapac-ethyl (Moddus 250 EC™ from Syngenta) diluted 1 part in 1000 parts water. The pots were kept in a controlled environment room at 19° C. constant temperature, 60% relative humidity and a 14 hour day length until test treatment at which time the plants were around 3 weeks old. Plant density was reduced to typically 4 plants per pot prior to application of the test treatments.
The difenoconazole formulations were mixed with water and ultrasonically agitated in order to achieve a homogeneous emulsion. Spray solutions were then made with 9 parts water to 1 part isopropanol by volume. The test treatments were applied using a track-sprayer with a single flat-fan nozzle at a height of 60 cm and calibrated to apply the equivalent of 200 litres per hectare.
The symptoms of phytotoxicity on wheat caused by difenoconazole included chlorosis and/or necrosis.
Test wheat plants were grown and the formulations applied as for Example 3. […]

As to `C[C@H]1CO[C@](Cn2cncn2)(c2ccc(Oc3ccc(Cl)cc3)cc2Cl)O1` [Ib], the “Phytotoxic damage to wheat compared with the other stereoisomers” value was “less phytotoxic damage”.
